Experimental findings from PubChem BioAssay (NCI) are described below.

Among the test systems are UO-31 renal; RPMI-8226 leukemia; M14 melanoma; OVCAR-4 ovarian; CCRF-CEM leukemia; SR leukemia; OVCAR-5 ovarian; SF-295 CNS; EKVX NSCLC.
What all share (assay): NCI anticancer screen, dose series, 48 h

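How tested: cells in 96-well plates exposed to compound for 48 hours at five concentrations. GI50 is the concentration that inhibits growth by half. The concentration for full growth arrest is given as TGI.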 Where a SMILES comes first, the peptide text is derived from it. [ ]: non-standard residue; d: D form. The star is where a group is joined. ξ: configuration not given here. 4Abz = Nc1ccc(C(=O)O)cc1; ξL = CC(C)CC(N)C(=O)O; NHOH = ON*

As to `N=C(N)c1ccc(-c2ccc(-c3ccco3)o2)cc1`, the GI50 is 3.17 µM in the test on UO-31 renal; 2.51 µM with RPMI-8226 leukemia; 1.9 µM with M14 melanoma; 6.42 µM in the test on OVCAR-4 ovarian; 3.11 µM with CCRF-CEM leukemia; 3.17 µM with SR leukemia. For the same compound, the GI50 in the test with OVCAR-5 ovarian is 4.98 µM. The TGI worked out at 16.3 µM in the test with UO-31 renal; 7.52 µM in the test on RPMI-8226 leukemia; 3.77 µM in the test on M14 melanoma; 24.1 µM with OVCAR-4 ovarian; 15.2 µM in the test with CCRF-CEM leukemia; 10.7 µM in the test with SR leukemia. Besides, the TGI in the test on OVCAR-5 ovarian worked out at 18.8 µM.
For `N#CC1=C(N)NC(=S)NC1c1ccc(-c2ccc(-c3nc4ccccc4s3)cc2)o1` (stereo not drawn), the GI50 in the test with UO-31 renal is over 50 µM; in the test on RPMI-8226 leukemia, 32.8 µM; with SF-295 CNS, 26.9 µM; in the test with M14 melanoma it was 20.8 µM; with SR leukemia, 11.3 µM; in the test on OVCAR-5 ovarian it was over 50 µM. In addition, the GI50 in the test on EKVX NSCLC was over 50 µM. For the same compound, the TGI is over 50 µM in the test with UO-31 renal; over 50 µM in the test with RPMI-8226 leukemia; over 50 µM with SF-295 CNS; over 50 µM in the test on M14 melanoma; 25.7 µM in the test with SR leukemia; over 50 µM with OVCAR-5 ovarian. The TGI with EKVX NSCLC was over 50 µM.
As to `CC(C)=CCNc1ncnc2c1ncn2C1OC(COP(=O)(O)O)C(O)C1O` (stereo not drawn), the GI50 was 4.1 µM in the test on UO-31 renal; 42.8 µM in the test with RPMI-8226 leukemia; 5.8 µM with SF-295 CNS; 10.4 µM in the test with M14 melanoma; 5.01 µM in the test with OVCAR-4 ovarian; 3.32 µM in the test on CCRF-CEM leukemia. Further, the GI50 with OVCAR-5 ovarian was 32.9 µM. Moreover, the TGI with UO-31 renal was over 52 µM; in the test on RPMI-8226 leukemia it was over 100 µM; with SF-295 CNS, 34 µM; in the test on M14 melanoma, over 100 µM; with OVCAR-4 ovarian, 34.3 µM; in the test on CCRF-CEM leukemia, over 100 µM. For the same compound, in the test with OVCAR-5 ovarian, the TGI is over 100 µM.
Turning to `COC(=O)C1=C(O)C(C(=O)OC)[C@@]2(O)[C@@H](C(=O)OC)C(c3ccccc3C(F)(F)F)C[C@@H]1[C@@H]2C(=O)OC` (stereo partly drawn), the GI50 in the test on UO-31 renal is 13 µM; in the test with RPMI-8226 leukemia, 2.4 µM; with M14 melanoma it was 13.9 µM; in the test on CCRF-CEM leukemia, 2.13 µM; in the test with SR leukemia, 2.82 µM; in the test on OVCAR-5 ovarian it was 17.4 µM. Moreover, in the test with EKVX NSCLC, the GI50 was 6.36 µM. Besides, the TGI in the test on UO-31 renal was 26.5 µM; with RPMI-8226 leukemia, over 100 µM; in the test on M14 melanoma, 47.4 µM; in the test with CCRF-CEM leukemia it was 11.2 µM; with SR leukemia, 62.4 µM; with OVCAR-5 ovarian, 33.3 µM. In the test on EKVX NSCLC, this compound displayed a TGI of 19.4 µM.
As to `COc1ccc(-n2cc(-c3ccc(Cl)cc3)[nH]c2=S)cc1Cl`, the GI50 in the test with UO-31 renal is 19.1 µM; in the test on RPMI-8226 leukemia it was 55.3 µM; in the test on SF-295 CNS it was 22 µM; in the test on OVCAR-4 ovarian, 20.7 µM; in the test with CCRF-CEM leukemia, 60.6 µM; with OVCAR-5 ovarian, over 100 µM. The GI50 in the test with EKVX NSCLC was 42.8 µM. The TGI with UO-31 renal is 47.8 µM; with RPMI-8226 leukemia, over 100 µM; with SF-295 CNS, 57.7 µM; in the test on OVCAR-4 ovarian, 48.6 µM; in the test with CCRF-CEM leukemia it was over 100 µM; in the test with OVCAR-5 ovarian it was over 100 µM. This compound also gave a TGI in the test with EKVX NSCLC of over 100 µM.
With `COc1ccc(C2CC(c3cccc(Nc4ccnc5cc(Cl)ccc45)c3)=NN2c2ccccc2)cc1` (stereo not drawn), the GI50 in the test on UO-31 renal is 0.478 µM; with RPMI-8226 leukemia it was 1.27 µM; in the test on SF-295 CNS, 1.62 µM; with M14 melanoma, 0.331 µM; in the test with CCRF-CEM leukemia, 0.546 µM; in the test on SR leukemia it was 1.17 µM. In addition, the GI50 with OVCAR-5 ovarian is 11.8 µM. In addition, the TGI in the test with UO-31 renal is 21.6 µM; in the test on RPMI-8226 leukemia it was 22.8 µM; in the test with SF-295 CNS it was 16.4 µM; in the test with M14 melanoma, 15.4 µM; in the test with CCRF-CEM leukemia, 37.9 µM; with SR leukemia, 8.52 µM. Moreover, in the test on OVCAR-5 ovarian, the TGI turned out to be 61.7 µM.
As for `Cc1ccc(NC(=O)C(=O)C2C(=O)C3=C(CC2(C)C)NC2C=CC=CC2S3)c(C)c1` (stereo not drawn), the TGI with UO-31 renal, with SF-295 CNS, with OVCAR-4 ovarian, in the test with CCRF-CEM leukemia and with EKVX NSCLC was over 100 µM throughout.
For `COc1cc2c(cc1OC)[C@@H]1[C@H](C2=O)c2ccc([N+](=O)[O-])cc2C(=O)N1CCCBr`, the GI50 was 0.145 µM in the test on RPMI-8226 leukemia; under 0.01 µM with M14 melanoma; 2.4 µM with OVCAR-4 ovarian; under 0.01 µM in the test on CCRF-CEM leukemia; under 0.01 µM with SR leukemia; 1.64 µM in the test on OVCAR-5 ovarian. The GI50 in the test with EKVX NSCLC is 1.78 µM. In addition, the TGI in the test on RPMI-8226 leukemia is 1.87 µM; in the test with M14 melanoma it was 0.0139 µM; in the test on OVCAR-4 ovarian it was over 100 µM; with SR leukemia, 0.311 µM; in the test on OVCAR-5 ovarian, over 100 µM; in the test with EKVX NSCLC, over 100 µM.
As for `COc1ccc2c(c1)Cc1cc(N=[N+]([O-])c3ccc4c(c3)Cc3cc(OC)ccc3-4)ccc1-2`, the TGI with UO-31 renal was over 100 µM; in the test on SF-295 CNS, over 100 µM; in the test on M14 melanoma it was over 100 µM; in the test on OVCAR-4 ovarian, over 100 µM; in the test on CCRF-CEM leukemia it was over 100 µM; with SR leukemia it was 41.5 µM. The TGI in the test with OVCAR-5 ovarian and in the test on EKVX NSCLC was over 100 µM each time.
For `C=C1c2c(C)nn(-c3ccccc3)c2N(C)C23C[C@@H]1C1(C)c4c(C)nn(-c5ccccc5)c4N(C)C(C)(C[C@H]12)C3` (stereo partly drawn), the GI50 in the test on OVCAR-4 ovarian is 4.49 µM; with OVCAR-5 ovarian it was over 100 µM. The TGI in the test with OVCAR-4 ovarian and in the test with OVCAR-5 ovarian was over 100 µM in each case.
With `CC(C)CC(NC(=O)[C@@H]1CCCN1C(=O)CNC(=O)c1ccc(N)cc1)C(=O)N[C@H](C)C(=O)NO` (stereo partly drawn) (H-[4Abz]GP[ξL][dA]-{NHOH}), the GI50 in the test with UO-31 renal, with SF-295 CNS, in the test on M14 melanoma, with OVCAR-4 ovarian, in the test on OVCAR-5 ovarian and in the test with EKVX NSCLC was over 100 µM each time. The TGI with UO-31 renal, in the test on SF-295 CNS, in the test on M14 melanoma, in the test on OVCAR-4 ovarian, in the test with OVCAR-5 ovarian and in the test with EKVX NSCLC was over 100 µM throughout.
On to `O=C1c2cc(Br)ccc2-c2c1c1ccccc1c(=O)n2CCCCl`, for which the GI50 is 41 µM in the test on UO-31 renal; 41.6 µM in the test with RPMI-8226 leukemia; 4.29 µM in the test with SF-295 CNS; 13.2 µM in the test with M14 melanoma; 8.51 µM in the test with CCRF-CEM leukemia; 94.3 µM in the test on EKVX NSCLC. For the same compound, the TGI is over 100 µM in the test with UO-31 renal; over 100 µM in the test with RPMI-8226 leukemia; 21.4 µM in the test on SF-295 CNS; over 100 µM with M14 melanoma; over 100 µM in the test with CCRF-CEM leukemia; over 100 µM with EKVX NSCLC.
